Patent publication US9302999B2, “Substituted triazoles as herbicides” (E. I. DU PONT DE NEMOURS AND COMPANY, priority 2012, dated 2016)
Like-named read-outs stand apart in the source and are kept apart here.

Columns and labels:
Assay type in all cases: in vivo
[1] = system: foxtail, giant (giant foxtail, Setaria faberii); experiment: Test A pre-/postemergence: foxtail, giant; conditions: for pest or weed control at 125 g/ha / pest or weed control at 500 g/ha: Setaria faberi, 240 h
Outline: (§1)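 Whole-plant greenhouse assay in loam/sand. Preemergence directed soil spray plus simultaneous postemergence spray (one- to two-leaf stage, 2–10 cm). Rated visually ~10 days later, 0 = no effect, 100 = complete control.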

[2] = system: morningglory (Ipomoea spp.); experiment: Test A pre-/postemergence: morningglory; conditions: for pest or weed control at 125 g/ha / pest or weed control at 500 g/ha: Ipomoea, 240 h
Outline: as §1

corn (Zea mays) = experiment: Test A pre-/postemergence: corn
Outline: as §1

[3] = system: sedge, umbrella (small-flower umbrella sedge Cyperus difformis); experiment: Test B flooded paddy: sedge, umbrella; conditions: Flood; 125 g ai/ha; applied to paddy water at 2-leaf stage; visually evaluated after 13 to 15 days
Outline: (§2)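 Plants were grown to the 2-leaf stage, then pots were flooded to 3 cm above the soil and compounds were applied directly into the paddy water. Water depth was held for the whole test; after 13 to 15 days in a greenhouse, injury was visually rated against untreated controls (0 = no effect, 100 = complete control).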

[4] = system: ducksalad (Heteranthera limosa); experiment: Test B flooded paddy: ducksalad; conditions: Flood; 125 g ai/ha; applied to paddy water at 2-leaf stage; visually evaluated after 13 to 15 days
Outline: as §2

[5] = system: ryegrass, Italian (Italian ryegrass, Lolium multiflorum); experiment: Test C pre-/postemergence: ryegrass, Italian
Outline: (§3)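 Preemergence on seeds in loam/sand, postemergence on 2–18 cm (1–4-leaf) plants in peat-based medium; compounds in non-phytotoxic solvent with surfactant. After 13–15 days in greenhouse, visual rating versus controls, 0 (no effect) to 100 (complete control).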

[6] = system: johnsongrass (Sorghum halepense); experiment: Test C pre-/postemergence: johnsongrass
Outline: as §3

kochia (Kochia scoparia) = experiment: Test C pre-/postemergence: kochia; conditions: Postemergence
Outline: as §3

[7] = system: ragweed (common ragweed, Ambrosia elation); experiment: Test C pre-/postemergence: ragweed
Outline: as §3

soybean (Glycine max) = experiment: Test C pre-/postemergence: soybean
Outline: as §3

[8] = system: chickweed (common chickweed, Stellaria media); experiment: Test C postemergence: chickweed
Outline: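 Greenhouse pot test; foliar postemergence treatment at 1- to 4-leaf stage. Rated visually at 13 to 15 days on a 0–100 control scale relative to untreated plants.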

[9] = Postemergence, 31 g ai/ha, scale 0 to 100 (0 no effect, 100 complete control)
[10] = Postemergence, 62 g ai/ha, scale 0 to 100 (0 no effect, 100 complete control)
[11] = Postemergence, 125 g ai/ha, scale 0 to 100, 0 no effect, 100 complete control
[12] = Postemergence, 250 g ai/ha, scale 0 to 100
[13] = Preemergence, 31 g ai/ha, scale 0 (no effect) to 100 (complete control)
[14] = Preemergence, 62 g ai/ha, scale of 0 to 100, 0 is no effect, 100 is complete control
[15] = Preemergence, 125 g ai/ha, scale 0 to 100, 0 no effect, 100 complete control
[16] = Preemergence, 250 g ai/ha, scale 0 to 100, 0 no effect, 100 complete control
[17] = 31 g ai/ha, scale 0 to 100 (0 no effect, 100 complete control)
[18] = 62 g ai/ha, scale 0 to 100 (0 no effect, 100 complete control)
[19] = 125 g ai/ha, scale 0 to 100, 0 no effect, 100 complete control
[20] = Postemergence, 125 g ai/ha, 0 to 100 scale, 0 is no effect, 100 is complete control
[21] = Postemergence, 500 g ai/ha, 0 to 100 scale, 0 is no effect, 100 is complete control
[22] = Preemergence, 125 g ai/ha, 0 to 100 scale where 0 is no effect and 100 is complete control
[23] = Preemergence, 500 g ai/ha, 0 to 100 scale (0 no effect, 100 complete control)
[24] = Postemergence, 250 g ai/ha, scale 0 to 100 (0 no effect, 100 complete control)

## CCOc1nn(-c2ccc(C(F)(F)F)cc2)nc1Cc1ccnc(C(F)(F)F)c1 [Compound 164, 4-[[5-ethoxy-2-[4-(trifluoromethyl)phenyl]-2H-1,2,3-triazol-4-yl]methyl]-2-(trifluoromethyl)pyridine]
[1]; post-emergence, Postemergence, 125 g ai/ha, 0 to 100 scale, 0 is no effect, 100 is complete control, read-out: Plant response rating, Foxtail, Giant
  pest or weed control at 125 g/ha: 90%
[1]; post-emergence, Postemergence, 500 g ai/ha, 0 to 100 scale, 0 is no effect, 100 is complete control, read-out: Foxtail, Giant plant response rating
  pest or weed control at 500 g/ha: 90%
[1]; pre-emergence, Preemergence, 125 g ai/ha, 0 to 100 scale where 0 is no effect and 100 is complete control, read-out: Plant response rating, Foxtail, Giant
  pest or weed control at 125 g/ha: 100%
[1]; pre-emergence, Preemergence, 500 g ai/ha, 0 to 100 scale (0 no effect, 100 complete control), read-out: Plant response rating, Foxtail, Giant
  pest or weed control at 500 g/ha: 100%
[2]; post-emergence, Postemergence, 125 g ai/ha, 0 to 100 scale, 0 is no effect, 100 is complete control, read-out: Plant response rating, Morningglory
  pest or weed control at 125 g/ha: 100%
[2]; post-emergence, Postemergence, 500 g ai/ha, 0 to 100 scale, 0 is no effect, 100 is complete control, read-out: Morningglory plant response rating
  pest or weed control at 500 g/ha: 100%
[2]; pre-emergence, Preemergence, 125 g ai/ha, 0 to 100 scale where 0 is no effect and 100 is complete control, read-out: Plant response rating, Morningglory
  pest or weed control at 125 g/ha: 80%
[2]; pre-emergence, Preemergence, 500 g ai/ha, 0 to 100 scale (0 no effect, 100 complete control), read-out: Plant response rating, Morningglory
  pest or weed control at 500 g/ha: 90%
Corn (Zea mays); Zea mays, post-emergence, 240 h, Postemergence, 125 g ai/ha, 0 to 100 scale, 0 is no effect, 100 is complete control
  Corn plant response rating (crop injury, 0 = no effect, 100 = complete kill) at 125 g/ha: 30%
Corn (Zea mays); Zea mays, post-emergence, 240 h, Postemergence, 500 g ai/ha, 0 to 100 scale, 0 is no effect, 100 is complete control, read-out: Corn plant response rating
  plant injury at 500 g/ha: 40%
Corn (Zea mays); Zea mays, pre-emergence, 240 h, Preemergence, 125 g ai/ha, 0 to 100 scale where 0 is no effect and 100 is complete control
  Corn plant response rating (crop injury, 0 = no effect, 100 = complete kill) at 125 g/ha: 30%
Corn (Zea mays); Zea mays, pre-emergence, 240 h, Preemergence, 500 g ai/ha, 0 to 100 scale (0 no effect, 100 complete control)
  Corn plant response rating (crop injury, 0 = no effect, 100 = complete kill) at 500 g/ha: 30%
[3]
  Plant response rating, Sedge, Umbrella (0 to 100 scale, 0 is no effect, 100 is complete control): 75
[4]
  Plant response rating, Ducksalad (0 to 100 scale, 0 is no effect, 100 is complete control): 0
[5]; [9]
  Plant response rating, Ryegrass, Italian: 5
[5]; [10]
  Plant response rating, Ryegrass, Italian: 5
[5]; [11]
  Plant response rating, Ryegrass, Italian: 5
[5]; [12]
  Plant response rating, Ryegrass, Italian: 5
[5]; [13]
  Plant response rating, Ryegrass, Italian: 5
[5]; [14]
  Plant response rating, Ryegrass, Italian: 10
[5]; [15]
  Plant response rating, Ryegrass, Italian: 55
[5]; [16]
  Plant response rating, Ryegrass, Italian: 75
[6]; [9]
  Plant response rating, Johnsongrass: 10
[6]; [10]
  Plant response rating, Johnsongrass: 10
[6]; [11]
  Plant response rating, Johnsongrass: 10
[6]; [12]
  Plant response rating, Johnsongrass: 10
[6]; [13]
  Plant response rating, Johnsongrass: 5
[6]; [14]
  Plant response rating, Johnsongrass: 15
[6]; [15]
  Plant response rating, Johnsongrass: 20
[6]; [16]
  Plant response rating, Johnsongrass: 40
Kochia (Kochia scoparia); [17]
  Plant response rating, Kochia: 40
Kochia (Kochia scoparia); [18]
  Plant response rating, Kochia: 40
Kochia (Kochia scoparia); [19]
  Plant response rating, Kochia: 40
Kochia (Kochia scoparia); 250 g ai/ha, scale 0 to 100
  Plant response rating, Kochia: 90
[7]; [9]
  Plant response rating, Ragweed: 50
[7]; [10]
  Plant response rating, Ragweed: 50
[7]; [12]
  Plant response rating, Ragweed: 60
[7]; [13]
  Plant response rating, Ragweed: 20
[7]; [14]
  Plant response rating, Ragweed: 20
[7]; [15]
  Plant response rating, Ragweed: 25
[7]; [16]
  Plant response rating, Ragweed: 30
Soybean (Glycine max); [9]
  Plant response rating, Soybean: 30
Soybean (Glycine max); [10]
  Plant response rating, Soybean: 40
Soybean (Glycine max); [12]
  Plant response rating, Soybean: 50
Soybean (Glycine max); [13]
  Plant response rating, Soybean: 0
Soybean (Glycine max); [14]
  Plant response rating, Soybean: 0
Soybean (Glycine max); [15]
  Plant response rating, Soybean: 5
Soybean (Glycine max); [16]
  Plant response rating, Soybean: 5
[8]; [17]
  Plant response rating, Chickweed: 10
[8]; [18]
  Plant response rating, Chickweed: 40
[8]; [19]
  Plant response rating, Chickweed: 45
[8]; 250 g ai/ha, scale 0 to 100
  Plant response rating, Chickweed: 45

## CCCc1nn(-c2ccc(F)cc2F)nc1Oc1ccnc(C(F)(F)F)c1 [Compound 179]
[1]; [20]
  Plant response rating, Foxtail, Giant: 90
[1]; [21]
  Foxtail, Giant plant response rating: 90
[1]; [22]
  Plant response rating, Foxtail, Giant: 100
[1]; [23]
  Plant response rating, Foxtail, Giant: 100
[2]; [20]
  Plant response rating, Morningglory: 100
[2]; [21]
  Morningglory plant response rating: 100
[2]; [22]
  Plant response rating, Morningglory: 40
[2]; [23]
  Plant response rating, Morningglory: 70
Corn (Zea mays); [20]
  Plant response rating, Corn: 20
Corn (Zea mays); [21]
  Corn plant response rating: 30
Corn (Zea mays); [22]
  Plant response rating, Corn: 20
Corn (Zea mays); [23]
  Plant response rating, Corn: 30
[3]
  Plant response rating, Sedge, Umbrella (0 to 100 scale, 0 is no effect, 100 is complete control): 75
[4]
  Plant response rating, Ducksalad (0 to 100 scale, 0 is no effect, 100 is complete control): 65
[5]; [9]
  Plant response rating, Ryegrass, Italian: 10
[5]; [10]
  Plant response rating, Ryegrass, Italian: 15
[5]; [11]
  Plant response rating, Ryegrass, Italian: 25
[5]; [24]
  Plant response rating, Ryegrass, Italian: 40
[5]; [13]
  Plant response rating, Ryegrass, Italian: 45
[5]; [14]
  Plant response rating, Ryegrass, Italian: 95
[5]; [15]
  Plant response rating, Ryegrass, Italian: 95
[5]; [16]
  Plant response rating, Ryegrass, Italian: 95
[6]; [9]
  Plant response rating, Johnsongrass: 10
[6]; [10]
  Plant response rating, Johnsongrass: 20
[6]; [11]
  Plant response rating, Johnsongrass: 20
[6]; [24]
  Plant response rating, Johnsongrass: 55
[6]; [13]
  Plant response rating, Johnsongrass: 5
[6]; [14]
  Plant response rating, Johnsongrass: 60
[6]; [15]
  Plant response rating, Johnsongrass: 95
[6]; [16]
  Plant response rating, Johnsongrass: 100
Kochia (Kochia scoparia); [17]
  Plant response rating, Kochia: 80
Kochia (Kochia scoparia); [18]
  Plant response rating, Kochia: 90
Kochia (Kochia scoparia); [19]
  Plant response rating, Kochia: 90
Kochia (Kochia scoparia); 250 g ai/ha, scale 0 to 100 (0 no effect, 100 complete control)
  Plant response rating, Kochia: 90
[7]; [9]
  Plant response rating, Ragweed: 50
[7]; [10]
  Plant response rating, Ragweed: 55
[7]; [11]
  Plant response rating, Ragweed: 60
[7]; [24]
  Plant response rating, Ragweed: 75
[7]; [13]
  Plant response rating, Ragweed: 40
[7]; [14]
  Plant response rating, Ragweed: 40
[7]; [15]
  Plant response rating, Ragweed: 45
[7]; [16]
  Plant response rating, Ragweed: 45
Soybean (Glycine max); [9]
  Plant response rating, Soybean: 30
Soybean (Glycine max); [10]
  Plant response rating, Soybean: 35
Soybean (Glycine max); [11]
  Plant response rating, Soybean: 45
Soybean (Glycine max); [24]
  Plant response rating, Soybean: 45
Soybean (Glycine max); [13]
  Plant response rating, Soybean: 0
Soybean (Glycine max); [14]
  Plant response rating, Soybean: 10
Soybean (Glycine max); [15]
  Plant response rating, Soybean: 10
Soybean (Glycine max); [16]
  Plant response rating, Soybean: 25
[8]; [17]
  Plant response rating, Chickweed: 75
[8]; [18]
  Plant response rating, Chickweed: 80
[8]; [19]
  Plant response rating, Chickweed: 85
[8]; 250 g ai/ha, scale 0 to 100
  Plant response rating, Chickweed: 95
